Laboratory results reported in patent US10912767B2, “Anthracycline prodrugs and methods of making and using the same” (THE REGENTS OF THE UNIVERSITY OF COLORADO, priority 2015, dated 2021).
Like-named read-outs stand apart in the source and are kept apart here. Non-standard residues stand in square brackets, D forms with d. Residues, ends and D or L forms follow the SMILES beside them. *: point of attachment. X1 = COc1cc(C(C)OC(=O)N2CO[C@@H]3[C@H](C)OC(OC4CC(O)(C(=O)CO)Cc5c(O)c6c(c(O)c54)C(=O)c4c(OC)cccc4C6=O)C[C@@H]32)c([N+](=O)[O-])cc1OCC(=O)NCCOCCOCCOCCn1nnc2c1-c1ccccc1CN(C(=O)CCNC(=O)CCN1C(=O)CC(*)C1=O)c1ccccc1-2; Mpa = O=C(O)CCS

Assays:
[1] = Photolysis timecourses, near UV blacklight 350 nm, HPLC; format: physicochemical; conditions: for k in ACN: H2O, relative rate constant for photocleavage / k in PBS, relative rate constant for photocleavage: 100 μM, near UV 350 nm; for k in ACN: H2O, relative rate constant for photocleavage / k in ACN: H2O, fold over photodoxazolidine: 1:1 acetonitrile:water; for photochemical reaction, fold faster than photodoxazolidine: both solvents
Description: (§1) In order to investigate the photolysis of the drugs in a system amenable to cell culture use, a custom UV irradiation apparatus was constructed, consisting of 3 small blacklight fluorescent bulbs (Southern New England Ultraviolet Co., λmax=350 nm) set between two ring stands and suspended at a height of 11.5 cm. The bulbs' housing was reflective aluminum so as to direct as much UV irradiation as possible downward toward the plate. Upon installation in sterile cell culture hood, the power of the system was measured at approximately 6-7 mW using a Scientech laser power meter. Prior to experimentation, the hood and irradiation apparatus was sterilized with 254 nm germicidal UV irradiation overnight. Using this setup, 100 μM of 4,5-dimethoxy-2-nitrobenyl alcohol (DMNA), photodoxazolidine R═H, and glucose-PEG-photodoxazoldine were irradiated in individual wells of a 24-well plate. Initially, 50 μL of a DMSO stock was diluted with 950 μL of PBS and aliquots of 50 μL were removed at various times (0-180 min), mixing by pipetting each time. The timepoints were analyzed by HPLC (method 2) and plotted as fractional conversion versus time. […] Therefore, a second experiment was performed in which the PBS was replaced with 1:1 acetonitrile:water. With this system of 5% DMSO/47.5% acetonitrile/47.5% water, no visible precipitation was produced over the course of the reaction.
The measured quantum yield of 0.002 for photodoxazolidine R═H (above) was lower than expected, which raised the possibility that the presence of the anthraquinone ring complex in the prodrugs was inhibiting photocleavage by quenching the activated state. To test whether this, the irradiation kinetics of DMNA (4, 5-dimethoxy-2-nitrobenzyl alcohol) was compared against photodoxazolidine R═H, which contains the DMNA unit as the photoactivating group. Additionally, glucose-PEG-photodoxazoldine was included for comparison; a synthetic precursor to this compound, azido-PEG-photodoxazolidine, is suspected of having a quantum yield of 0.01-0.02, which is 5-10-fold larger than photodoxazolidine. Irradiation was performed in 24-well cell culture dishes using the cell culture irradiation system described above with the soft-glass high-pass filter. […] In both cases, photodoxazolidine was the slowest to produce dox from the irradiation. In line with its quantum yield, glucose-PEG-photodoxazolidine reacted 4-5-fold faster than photodoxazolidine. However, DMNA was by far the fastest to undergo photochemistry in this system, converting to product approximately 30-fold faster than photodoxazolidine.

[2] = test system: MDA-MB-231 human breast cancer cells; assay: cells; format: cell-based
Procedure: The breast carcinoma line MDA-MB-231 was cultured in Minimum Essential Media (MEM) supplemented with 10% of fetal bovine serum (FBS), 100 units/mL of penicillin and 100 μg/mL of streptomycin, and 1 mM of sodium pyruvate. The cells were incubated at 37° C. in an atmosphere of 95% air and 5% CO2.
The cells were seeded to 96-well plates at a density of 1000 cells/well and allowed to adhere overnight. The prodrugs with various concentrations in MEM were added and the cells were incubated at 37° C. for 24 h. After the media was removed, the cells were washed with PBS two times. The cells in PBS (50 μL) were irradiated for 15 min, followed by incubating at room temperature for 30 min. The PBS was replaced with fresh media and the cells were grown until the no-drug control reached 80% confluency, or 5 days. Cell density was measured by crystal violet staining.
The membrane permeability of the photoactivated prodrugs and their cellular uptake by MDA-MB-231 human breast cancer cells were each monitored by fluorescence microscopy. After the cells were grown with the prodrugs for 24 h, they were washed with PBS two times to remove the prodrugs that remained outside of the cells. The cellular uptake of 10 μM glucose-photodoxazolidine and glucose-PEG-photodoxazolidine was monitored with the fluorescence of the anthraquinone fluorophore. The prodrugs were then activated inside of the cells by black lamp UV irradiation (maximum intensity at 350 nm) for 15 min. […] This drastic change of cytotoxicity presumably arises from membrane permeability of MARCKS-ED peptide and possibly some phototoxicity from longer irradiation time.

[3] = test system: MDA-MB-231 breast cancer cells; assay: Tumor cell growth inhibition, crystal violet (Example 2); format: cell-based, human; conditions: Homo sapiens, read-out: IC50
Description: as §1
The ovarian carcinoma line NCl/ADR-RES (ADR) was grown in high-glucose Dulbecco's Modified Eagle Medium (DMEM) supplemented with 10% fetal bovine serum (FBS), 200 units/mL of penicillin and 200 μg/mL of streptomycin. The breast carcinoma line MDA-MB-231 was cultured in low-glucose DMEM with the same additives. Both lines were maintained in a humidified incubator with 5% CO2/95% air at 37° C. UV irradiations were performed with the apparatus described above.
Growth inhibition experiments were performed by seeding cells into 96-well plates or 24-well plates at densities of 1000-1500 cells per well or 8000 cells per well, respectively, and allowing the cells to adhere overnight. The media was then replaced with a range of aqueous concentrations of the drug in question and allowed to incubate at 37° C. with the cells for a span of time (Inc1) which ranged from 1 min to 48 hours. Irradiation was performed at room temperature with the plate's lid removed and ranged from 1 to 30 min. In some experiments, the drug solution was removed following Inc1 and irradiated in clean media or PBS. Following irradiation, the cells were placed back into the 37° C. incubator for a second period of incubation (Inc2), which varied between 1 min and 24 h, prior to replacement with fresh media. Plates which received no irradiation but identical treatment otherwise were done in parallel. The cells were then grown until the no-drug control wells reached approximately 80% confluence or 5 days, whichever was shorter. […] The cells were fixed with 5% formalin in PBS, stained with crystal violet, washed with tap water, and air-dried. The stain was resolubilized in 50% isopropyl alcohol, 50% H2O containing 2% (w/v) SDS. The staining density was read on a multiwell plate reader at 588-600 nm. Percentage cell density was calculated relative to the irradiated no-drug control wells, plotted as a function of drug concentration, and fit using non-linear least squared analysis with a variable-slope dose response model in GraphPad Prism 5.0 software.
Although the introduction of a long-pass glass filter between the light source and the plate alleviated this effect to a small extent, a maximum irradiation time of 10 min was settled upon. […] Since a media change at that point would remove the cells as well, the re-adherence of the cell population was accomplished by the addition of a large volume (200 μL) of complete media following Inc2, and overnight incubation. Then, a full media change was done to remove the drug. […]

| SMILES | k in ACN: H2O, relative rate constant for photocleavage [1] [min⁻¹] | k in PBS, relative rate constant for photocleavage [1] [min⁻¹] | k in ACN: H2O, fold over photodoxazolidine [1] | k in PBS, fold over photodoxazolidine [1] | photochemical reaction, fold faster than photodoxazolidine [1] | IC50 ([2]; Homo sapiens, MDA-MB-231, light +, 24 h incubation, 15 min UV, read-out: IC50) [nM] | IC50 ([2]; Homo sapiens, MDA-MB-231, light −, 24 h incubation, read-out: IC50) [nM] | IC50 ([3]; 10 min, MDA-MB-231, +UV 10 min, near UV 350 nm) [nM] | IC50 ([3]; MDA-MB-231, prodrug alone, no UV) [nM] | IC50 ([2]; Homo sapiens, MDA-MB-231) [nM] | IC50 ([2]; Homo sapiens, MDA-MB-231, 24 h) [nM] | IC50 ([2]; light −, 24 h incubation, read-out: IC50) [nM] |
| --- | --- | --- | --- | --- | --- | --- | --- | --- | --- | --- | --- | --- |
| COc1cc(CO)c([N+](=O)[O-])cc1OC [DMNA, 4,5-dimethoxy-2-nitrobenzylalcohol, reference compound] | 0.21 | 0.081 | (30) | (31) | approximately 30 fold |  |  |  |  |  |  |  |
| COc1cc(C(C)OC(=O)N2COC3C(C)OC(OC4CC(O)(C(=O)CO)Cc5c(O)c6c(c(O)c54)C(=O)c4c(OC)cccc4C6=O)CC32)c([N+](=O)[O-])cc1OCC(=O)NCCOCCOCCOCCn1cc(CCC(=O)NC2C(O)OC(CO)C(O)C2O)nn1 (centres unmarked) [Glucose-PEG-photodoxazolidine] | 0.036 | 0.011 | (5.2) | (4.2) | 4-5 fold | 750 | 2400 | 27 ± 2 | > 10000 |  |  |  |
| COc1cc(C(C)OC(=O)N2COC3C(C)OC(OC4CC(O)(C(=O)CO)Cc5c(O)c6c(c(O)c54)C(=O)c4c(OC)cccc4C6=O)CC32)c([N+](=O)[O-])cc1OCC(=O)NC1C(O)OC(CO)C(O)C1O (centres unmarked) [Glucose-Phtodoxazolidine] |  |  |  |  |  |  |  |  |  | 832 | 2080 |  |
| COc1cc(C(C)OC(=O)N2CO[C@@H]3[C@H](C)OC(OC4CC(O)(C(=O)CO)Cc5c(O)c6c(c(O)c54)C(=O)c4c(OC)cccc4C6=O)C[C@@H]32)c([N+](=O)[O-])cc1OCC(=O)NCCOCCOCCOCCn1nnc2c1-c1ccccc1CN(C(=O)CCNC(=O)CCN1C(=O)CC(SCCC(=O)N[C@@H](CCCCN)C(=O)N[C@@H](CCCCN)C(=O)N[C@@H](CCCCN)C(=O)N[C@@H](CCCCN)C(=O)N[C@@H](CCCCN)C(=O)N[C@@H](CCCNC(=N)N)C(=O)N[C@@H](Cc3ccccc3)C(=O)N[C@@H](CO)C(=O)N[C@@H](Cc3ccccc3)C(=O)N[C@@H](CCCCN)C(=O)N[C@@H](CCCCN)C(=O)N[C@@H](CO)C(=O)N[C@@H](Cc3ccccc3)C(=O)N[C@@H](CCCCN)C(=O)N[C@@H](CC(C)C)C(=O)N[C@@H](CO)C(=O)NCC(=O)N[C@@H](Cc3ccccc3)C(=O)N[C@@H](CO)C(=O)N[C@@H](Cc3ccccc3)C(=O)N[C@@H](CCCCN)C(=O)N[C@@H](CCCCN)C(=O)N[C@@H](CC(N)=O)C(=O)N[C@@H](CCCCN)C(=O)N[C@@H](CCCCN)C(N)=O)C1=O)c1ccccc1-2 (some centres unmarked) [MARCKS-PEG-Photodoxazolidine] ([Mpa](X1)KKKKKRFSFKKSFKLSGFSFKKNKK-NH2) |  |  |  |  |  |  |  |  |  |  |  | 1300 |
